Source: ChEMBL document CHEMBL1201862, “PubChem BioAssay data set” (2004)
Where a name gives a salt, the structure may show the parent alone.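 48-hour exposure; five concentrations; linearly interpolated endpoints. GI50 is the concentration that inhibits growth by half.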 The source made the active and inactive calls. Rule as the data show it: active = GI50 up to about 1.1 µM and inactive = higher.

Legend:
Assay in all cases: DTP human tumour cell line panel, 48 h
M19-MEL = test system: M19-MEL
HOP-18 = test system: HOP-18
SNB-78 = test system: SNB-78
RXF 631 = test system: RXF 631
DLD-1 = test system: DLD-1
XF498 = test system: XF498
DMS-273 = test system: DMS-273
DU-145 = test system: DU-145
BT-549 = test system: BT-549

Measured: GI50

COc1ccc(-c2cc(O)c3cc(Cl)ccc3n2)cc1
inactive: M19-MEL > 100 µM | HOP-18 54.5 µM | SNB-78 > 100 µM | RXF 631 > 100 µM | DLD-1 > 100 µM | XF498 > 100 µM

CN1c2ccccc2N(C)C23N(C)c4ccccc4N(C)C12N(C)c1ccccc1N3C (centres undefined)
inactive: M19-MEL > 100 µM | RXF 631 > 100 µM | DLD-1 > 100 µM | XF498 49.1 µM | DMS-273 > 100 µM

CC/C(SC)=[N+](\C)[O-]
inactive: M19-MEL > 100 µM | HOP-18 > 100 µM | SNB-78 > 100 µM | RXF 631 > 100 µM | DLD-1 > 45.9 µM | XF498 > 100 µM

O=C1c2ccccc2C(=O)c2nc3c(O)cccc3cc21
inactive: M19-MEL 2.12 µM | HOP-18 24.9 µM | RXF 631 36.2 µM | DLD-1 9.75 µM | DMS-273 6.61 µM

CC1=NOC(=O)/C1=C/c1ccc([N+](=O)[O-])cc1
inactive: HOP-18 > 100 µM | SNB-78 > 100 µM | RXF 631 > 100 µM | DLD-1 > 100 µM | XF498 > 100 µM | DMS-273 > 100 µM

CC(C)(C)/N=C/N1C=Cc2nc3ccccc3cc2C1
inactive: M19-MEL > 100 µM | HOP-18 > 100 µM | SNB-78 > 100 µM | RXF 631 > 100 µM | DLD-1 34.1 µM | XF498 > 100 µM | DMS-273 > 100 µM

CC1=CC2CC(C)C1(C)CCc1ccoc12 (centres undefined)
inactive: M19-MEL > 100 µM | HOP-18 > 100 µM | SNB-78 > 100 µM | RXF 631 > 100 µM | DLD-1 > 100 µM | XF498 > 100 µM | DMS-273 > 100 µM

O=C(CC1(O)C(=O)Nc2ccc(Br)cc21)c1cccc([N+](=O)[O-])c1 (centres undefined)
inactive: HOP-18 23.6 µM | SNB-78 37.8 µM | RXF 631 > 100 µM | DLD-1 34.5 µM | DMS-273 45.8 µM

O=C1NC2CCC(C2)C1c1ccccc1 (centres undefined)
inactive: M19-MEL > 100 µM | HOP-18 > 100 µM | SNB-78 > 100 µM | RXF 631 > 100 µM | DLD-1 > 100 µM | DMS-273 > 100 µM

CCC12CCC(O)C1N(C)CCC2Sc1ccccc1 (centres undefined)
inactive: M19-MEL > 100 µM | HOP-18 46.7 µM | SNB-78 > 100 µM | RXF 631 > 100 µM | XF498 26.4 µM | DMS-273 > 100 µM

O=C(c1cc2ccccc2[nH]1)C(O)(c1cc2ccccc2[nH]1)c1cc2ccccc2[nH]1
inactive: RXF 631 > 246 µM | DLD-1 > 246 µM | DMS-273 > 246 µM

CNc1ccc2ncccc2c1[N+](=O)[O-]
inactive: M19-MEL > 100 µM | HOP-18 > 100 µM | SNB-78 > 100 µM | RXF 631 > 100 µM | DLD-1 > 100 µM | XF498 > 100 µM | DMS-273 > 100 µM

O=C1C2C3C=CC(C2C(=O)N1CO)C1C2C(=O)N(CO)C(=O)C2C31 (centres undefined)
inactive: M19-MEL > 68.5 µM | HOP-18 43.4 µM | SNB-78 > 100 µM | RXF 631 > 54.6 µM | DLD-1 > 46.9 µM | XF498 > 100 µM | DMS-273 > 44.5 µM

CNNCc1ccc(C(=O)NC(C)C)cc1 [PROCARBAZINE HYDROCHLORIDE]
inactive: M19-MEL > 500 µM | HOP-18 138 µM | SNB-78 > 500 µM | DLD-1 > 500 µM | XF498 > 500 µM | DU-145 > 500 µM | BT-549 > 500 µM | DMS-273 > 500 µM
